Laboratory results from patent publication US20260001875A1, “AMINOPYRIMIDINYL DERIVATIVES FOR THE TREATMENT OF PARKINSON'S DISEASE” (UNIVERSITY OF DUNDEE, priority 2022, published 2026).
Entries after “also recorded” stand apart in the source; their conditions may differ. Like-named read-outs stand apart in the source and are kept apart here.

Key:
Rab10 pThr73 = test: Rab10 Thr73 dephosphorylation (immunoblot) in LRRK2^G2019S MEFs; type: cell-based; conditions: Mus musculus, read-out: pRab10 inhibited in LRRK2^G2019S MEFs
LRRK2^R1441C = LRRK2^R1441C (Mus musculus, UniProt Q5S006, R1441C); test: Western blot LRRK2 degradation in LRRK2^R1441C MEFs; type: cell-based; conditions: 4 h treatment
LRRK2^R1441C, sequence (Q5S006 whole entry R1441C): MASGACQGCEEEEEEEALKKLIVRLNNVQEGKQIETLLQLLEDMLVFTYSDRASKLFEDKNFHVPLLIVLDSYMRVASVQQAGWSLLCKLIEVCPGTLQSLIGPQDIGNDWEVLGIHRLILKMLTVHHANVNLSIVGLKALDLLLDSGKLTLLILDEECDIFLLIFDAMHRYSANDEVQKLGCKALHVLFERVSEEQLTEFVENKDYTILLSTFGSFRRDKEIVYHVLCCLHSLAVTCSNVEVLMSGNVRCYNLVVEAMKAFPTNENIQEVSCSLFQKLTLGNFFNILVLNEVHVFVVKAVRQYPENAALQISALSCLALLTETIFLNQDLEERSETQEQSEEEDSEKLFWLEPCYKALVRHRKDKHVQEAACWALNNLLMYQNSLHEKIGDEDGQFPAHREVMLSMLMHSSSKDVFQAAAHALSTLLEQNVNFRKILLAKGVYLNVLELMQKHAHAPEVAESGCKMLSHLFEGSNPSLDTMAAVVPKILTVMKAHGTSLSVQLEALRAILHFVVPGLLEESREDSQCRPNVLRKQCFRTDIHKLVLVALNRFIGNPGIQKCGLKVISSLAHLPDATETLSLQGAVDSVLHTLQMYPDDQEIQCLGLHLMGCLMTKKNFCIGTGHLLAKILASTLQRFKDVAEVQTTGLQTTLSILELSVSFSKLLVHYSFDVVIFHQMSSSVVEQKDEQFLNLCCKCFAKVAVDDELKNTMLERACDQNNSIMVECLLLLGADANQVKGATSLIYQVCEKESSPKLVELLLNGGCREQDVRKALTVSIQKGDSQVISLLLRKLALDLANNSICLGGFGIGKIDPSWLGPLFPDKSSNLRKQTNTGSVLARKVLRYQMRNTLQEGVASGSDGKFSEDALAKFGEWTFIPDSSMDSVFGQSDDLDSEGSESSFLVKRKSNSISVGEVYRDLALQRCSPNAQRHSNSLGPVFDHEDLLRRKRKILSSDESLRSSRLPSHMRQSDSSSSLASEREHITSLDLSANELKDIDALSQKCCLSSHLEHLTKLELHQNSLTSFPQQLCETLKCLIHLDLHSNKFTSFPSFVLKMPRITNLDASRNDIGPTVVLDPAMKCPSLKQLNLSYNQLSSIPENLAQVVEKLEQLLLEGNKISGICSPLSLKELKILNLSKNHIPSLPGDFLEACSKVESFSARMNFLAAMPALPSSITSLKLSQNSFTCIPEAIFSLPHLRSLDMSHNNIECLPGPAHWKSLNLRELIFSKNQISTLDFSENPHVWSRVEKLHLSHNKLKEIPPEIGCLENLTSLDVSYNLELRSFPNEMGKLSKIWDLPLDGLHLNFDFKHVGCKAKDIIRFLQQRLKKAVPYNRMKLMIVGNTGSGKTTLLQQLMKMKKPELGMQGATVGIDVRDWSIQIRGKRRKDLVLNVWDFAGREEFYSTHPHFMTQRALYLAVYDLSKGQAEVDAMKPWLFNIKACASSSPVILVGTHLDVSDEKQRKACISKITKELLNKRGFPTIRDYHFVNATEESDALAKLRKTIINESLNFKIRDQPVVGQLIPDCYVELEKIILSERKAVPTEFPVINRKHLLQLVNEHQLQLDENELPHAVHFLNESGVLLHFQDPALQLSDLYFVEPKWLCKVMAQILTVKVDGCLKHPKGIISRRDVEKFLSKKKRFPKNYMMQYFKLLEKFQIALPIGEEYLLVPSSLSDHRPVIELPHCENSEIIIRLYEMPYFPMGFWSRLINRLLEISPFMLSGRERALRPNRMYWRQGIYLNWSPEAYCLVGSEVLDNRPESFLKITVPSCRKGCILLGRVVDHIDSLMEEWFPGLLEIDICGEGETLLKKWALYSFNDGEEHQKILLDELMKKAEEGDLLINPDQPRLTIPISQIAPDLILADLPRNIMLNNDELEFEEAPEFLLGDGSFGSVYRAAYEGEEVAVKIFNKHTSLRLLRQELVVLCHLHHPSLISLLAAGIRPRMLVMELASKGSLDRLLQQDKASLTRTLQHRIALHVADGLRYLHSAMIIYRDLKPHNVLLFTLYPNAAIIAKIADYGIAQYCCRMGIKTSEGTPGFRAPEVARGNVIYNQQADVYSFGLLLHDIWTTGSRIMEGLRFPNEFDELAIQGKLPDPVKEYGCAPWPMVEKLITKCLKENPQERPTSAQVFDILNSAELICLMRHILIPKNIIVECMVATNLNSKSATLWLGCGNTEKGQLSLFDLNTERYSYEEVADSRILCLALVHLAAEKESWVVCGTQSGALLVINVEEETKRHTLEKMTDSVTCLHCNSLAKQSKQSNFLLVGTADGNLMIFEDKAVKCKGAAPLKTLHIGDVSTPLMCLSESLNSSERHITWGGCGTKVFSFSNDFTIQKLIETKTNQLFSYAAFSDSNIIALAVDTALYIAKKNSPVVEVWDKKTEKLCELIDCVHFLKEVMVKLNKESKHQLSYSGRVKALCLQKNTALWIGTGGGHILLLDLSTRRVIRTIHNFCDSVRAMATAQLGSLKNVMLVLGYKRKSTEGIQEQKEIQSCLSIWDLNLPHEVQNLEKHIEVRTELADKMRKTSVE

Caco-2 permeability = type: in vitro ADME; conditions: human, Caco-2
Caco-2 mono-cell layer = test: Caco-2 permeability; type: in vitro ADME
[1] = Stability in mouse hepatocytes; type: in vitro ADME; conditions: read-out: T1/2 in mouse hepatocytes
[2] = Stability in mouse liver microsome; type: in vitro ADME; conditions: liver microsomes, read-out: T1/2 in mouse liver microsome
[3] = Stability in mouse plasma; type: in vitro ADME; conditions: read-out: T1/2 in mouse plasma

## CNc1nc(Nc2ccc(C(=O)N3CCN(CCOCCOCCSC(C)(C)[C@H](NC(=O)C4(F)CC4)C(=O)N4C[C@H](O)C[C@H]4C(=O)NCc4ccc(-c5scnc5C)cc4)CC3)cc2OC)ncc1Cl [SD75, (2S,4R)-1-((R)-3-((2-(2-(2-(4-(4-((5-chloro-4-(methylamino)pyrimidin-2-yl)amino)-3-methoxybenzoyl)piperazin-1-yl)ethoxy)ethoxy)ethyl)thio)-2-(1-fluorocyclopropane-1-carboxamido)-3-methylbutanoyl)-4-hydroxy-N-(4-(4-methylthiazol-5-yl)benzyl)pyrrolidine-2-carboxamide]
Rab10 pThr73; 33 nM/4 h treatment
  inhibition at 0.033 µM: 0 to 60%
Rab10 pThr73; 33 nM/24 h treatment
  inhibition at 0.033 µM: 0 to 70%

## CNc1nc(Nc2ccc(C(=O)N3CCN(C[C@H]4CC[C@@H](CSC(C)(C)[C@H](NC(=O)C5(F)CC5)C(=O)N5C[C@H](O)CC5C(=O)NCc5ccc(-c6scnc6C)cc5)CC4)CC3)cc2OC)ncc1Cl (stereo partly drawn) [XL01134]
Rab10 pThr73; 33 nM/4 h treatment
  inhibition at 0.033 µM: 0 to 70%
Rab10 pThr73; 33 nM/24 h treatment
  inhibition at 0.033 µM: 0 to 90%

## CNc1nc(Nc2ccc(C(=O)N3CCN(C[C@H]4CC[C@H](CSC(C)(C)[C@H](NC(=O)C5(F)CC5)C(=O)N5C[C@@H](O)CC5C(=O)NCc5ccc(-c6scnc6C)cc5)CC4)CC3)cc2OC)ncc1Cl (stereo partly drawn) [Cis-XL01126, (2S,4S)-1-((R)-3-((((1r,4R)-4-((4-(4-((5-chloro-4-(methylamino)pyrimidin-2-yl)amino)-3-methoxybenzoyl)piperazin-1-yl)methyl)cyclohexyl)methyl)thio)-2-(1-fluorocyclopropane-1-carboxamido)-3-methylbutanoyl)-4-hydroxy-N-(4-(4-methylthiazol-5-yl)benzyl)pyrrolidine-2-carboxamide]
LRRK2^R1441C
  LRRK2^R1441C degradation (in words): cannot degrade LRRK2^R1441C

## CNc1nc(Nc2ccc(C(=O)N3CCN(C[C@H]4CC[C@H](CSC(C)(C)[C@H](NC(=O)C5(F)CC5)C(=O)N5C[C@H](O)CC5C(=O)NCc5ccc(-c6scnc6C)cc5)CC4)CC3)cc2OC)ncc1Cl (stereo partly drawn) [XL01126, (2S,4R)-1-((R)-3-((((1R,4R)-4-((4-(4-((5-chloro-4-(methylamino)pyrimidin-2-yl)amino)-3-methoxybenzoyl)piperazin-1-yl)methyl)cyclohexyl)methyl)thio)-2-(1-fluorocyclopropane-1-carboxamido)-3-methylbutanoyl)-4-hydroxy-N-(4-(4-methylthiazol-5-yl)benzyl)pyrrolidine-2-carboxamide]
Caco-2 permeability; A − B
  Papp A→B: < 0.74 ×10⁻⁶ cm/s
Caco-2 permeability; B − A
  Papp B→A: < 1.43 ×10⁻⁶ cm/s
Caco-2 mono-cell layer
  penetration of Caco-2 mono-cell layer (in words): can penetrant Caco-2 mono-cell layer; also recorded: can penetrate Caco-2 mono-cell layer
[1]
  half-life: 314 min
[2]
  half-life: 3.65 min
LRRK2^R1441C; dose response
  Dmax of LRRK2^R1441C degradation: 80-90%
[3]
  half-life: 108 min
